Source: a melting point compilation (Tetko et al.)

melting point | SMILES
128 to 131 °C | O=Cc1ccc(-c2ccc(Cl)cc2)o1
140 to 141 °C | O=C(Cl)c1ccc(-c2ccccn2)s1
81.5 to 82.5 °C | OCc1ccc(OC2CCOCC2)cc1
98 to 101 °C | O=C1CCCN1c1ccc(Br)cc1
71 to 74 °C | O=C(Cl)c1cccnc1Sc1ccccc1
188 °C | Nc1ccc(Cl)c(C(=O)O)c1
75 °C | COc1ccc(-n2nc(C(=O)c3cccc4ccccc34)sc2=N)cc1
68 °C | CC(=O)Oc1ccc(OC(C)=O)c(-c2ccccc2)c1
100 °C | Cc1ccc(C(c2ccc(C)o2)c2cc(Br)cc([N+](=O)[O-])c2O)o1
32 °C | COc1ccc(C(=O)CCCCl)cc1
13 °C | CCCCOC(=O)C(C)Oc1ccc(Oc2ccc(C(F)(F)F)cn2)cc1 (centres undefined)
150 °C | NC(=O)c1ccccc1CO
189 to 190 °C | CCOC(=O)C1=C(C)OC(N)=C(C#N)C1c1ccccc1 (centres undefined)
-20.6 °C | CCc1ccc(C(C)=O)cc1
72 °C | CN(C)c1ccccc1C(=O)O
209 °C | CCOc1ccc(C(N)=O)cc1
25 °C | CCCCN(CCCC)C(=O)COC(=O)c1ccccc1
147 °C | Cc1ccccc1NC(=S)NN
-4 °C | CCOc1ccccc1N
270 °C | NC(=O)NN=Cc1ccc2c(Br)cccc2c1
84 to 85 °C | C/C=C/C(=O)N1C(=O)OC[C@@H]1Cc1ccccc1

Continued, molecule first:

SMILES | melting point
CC(C)(C)OC(=O)N1CCN(CCO)CC1 | 39 to 43 °C
CCCCCCCCCCCCCCCCCC(=O)OCCCC | 27 °C
ClCc1ccc(CCl)cc1 | 100 °C
O=C(NC1CCCCC1)C(C(F)(F)F)C(F)(F)F | 190 to 192 °C
O=[N+]([O-])c1cc(C2CCCCC2)c(O)c([N+](=O)[O-])c1 | 107 °C
COC(=O)[C@H](C)On1c(C)csc1=S | 69.8 °C
CC12CCC3C4CCC(=O)C=C4CCC3C1CCC2OC(=O)CCc1ccccc1 (centres undefined) | 118 °C
CCCCCCCCCCCCC1CCC1=O (centres undefined) | 28 to 31 °C
O=C(CBr)c1cccc(Br)c1 | 51 to 52 °C
CCSCC[C@@H](N)C(=O)O | 278 °C
CC(=O)N1CCSC1C(=O)O (centres undefined) | 114 to 116 °C
O=c1ccc(=O)[nH][nH]1 | 306 °C
CC(C)C1CC(=O)CC(=O)C1 | 80 °C
O=C(O)C[C@H](NC(=O)OCC1c2ccccc2-c2ccccc21)c1ccccc1 | 187 °C
COc1cc2noc(-c3ccc(C)o3)c2cc1OC | 146 °C
CCC(=O)N(C)C | -45 °C
O=[N+]([O-])c1cc(CCBr)c([N+](=O)[O-])cc1CCBr | 123 °C

SMILES | melting point
Cc1cccc([N+](=O)[O-])c1O | 70 °C
Cc1nc(C)c(C=O)s1 | 30 °C
CCOC=Nc1c(C#N)cnn1-c1ncnc2c1cnn2C | 155 °C
N#CC1=C(N)OC2(C(=O)Nc3ccccc32)C2=C1CCCC2 (centres undefined) | 231 °C
N#Cc1c(C(F)(F)F)cc(-c2cccs2)n(N)c1=O | 234 °C
O=[N+]([O-])c1ccccc1Sc1ccccc1 | 82 °C
CC(C)(C)OC(=O)c1n[nH]c2nc(F)ccc12 | 166 to 168 °C
CCCCCCCOC(=O)CCCCC | -34.4 °C
Nc1ccc2[nH]c(C(F)(F)F)nc2c1 | 188 °C
N#CC(C#N)=Cc1sccc1C=O | 126 to 130 °C
Cc1cc(=O)[nH]c2c(/N=N/c3cccc([N+](=O)[O-])c3)c(N)nn12 | 318 °C
CN1C(=O)C(=NNc2ccc(F)cc2)C(=O)N(C)C1=O | 191 °C
CC(CCC(=O)O)C1CCC2C3C=CC4CCCCC4(C)C3CCC12C (centres undefined) | 152 to 160 °C
IC=CI | -14 °C
CCCCCCCCCC1CCCC1 | -29 °C
CN(C)c1cccc(N(C)C)c1C#N | 71 to 73 °C
